In US7767646B2, “Methods of screening for compounds that modulate TAFIa activity, compounds, and methods of using the compounds” (American Diagnostica, Inc., priority 2002, dated 2010):
Entries after “also recorded” stand apart in the source; their conditions may differ. Read-outs that look alike come from different tables or passages of the source. Values belong to the compound of their own block, whether it stands above or below them.

Assays:
Format in all cases: biochemical
TAFI = biological target: T1, TAFI (Homo sapiens, UniProt Q96IY4); assay: TAFI activation by thrombin/thrombomodulin, SDS-PAGE; details: aliquots after 20 minutes, SDS-PAGE (FIG. 4)
T1 construct: purchased Hematological Associates (Essex Junction, Vt.)
T1 sequence (Q96IY4 23-423 limits assumed): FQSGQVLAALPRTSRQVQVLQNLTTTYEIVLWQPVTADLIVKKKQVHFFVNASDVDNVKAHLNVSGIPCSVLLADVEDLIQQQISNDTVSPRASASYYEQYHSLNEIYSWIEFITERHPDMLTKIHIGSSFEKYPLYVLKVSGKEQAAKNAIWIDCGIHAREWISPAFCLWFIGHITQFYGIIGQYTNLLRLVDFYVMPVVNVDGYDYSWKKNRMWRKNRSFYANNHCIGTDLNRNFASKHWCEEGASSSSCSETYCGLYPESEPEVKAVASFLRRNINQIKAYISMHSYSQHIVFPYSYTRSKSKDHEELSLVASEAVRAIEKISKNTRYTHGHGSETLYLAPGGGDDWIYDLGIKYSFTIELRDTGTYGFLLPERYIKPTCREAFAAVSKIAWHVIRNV
Method: After 20 minutes, aliquots were removed and analyzed by SDS-PAGE. Lane 1. Acetylsalicylic acid; 2. Salicylic acid; 3. 4-hydroxybenzoic acid; 4. 2-hydroxybenzoic acid (salicyluric acid); 5. Ibuprofen; 6. Acetominophen; 7 Control with no addition; 8. TAFI.
Not only, then, do SA and SU inhibit enzyme activity, they also retard the generation of TAFIa. Without being bound by any theory, this provides a dual mechanism by which fibrinolysis is enhanced during high dose aspirin therapy. The proposed pathways by which aspirin and its major metabolites SA and SU enhance fibrinolysis through inhibition of TAFI is presented in FIG. 5. […] Undas et al., 2001, Blood 98:2423-31.

TAFIa [1] = biological target: T2, TAFIa (Homo sapiens, UniProt Q96IY4); assay: TAFIa carboxypeptidase activity, ActiFLUOR TAFIa fluorescence-based assay; design: purchased American Diagnostica Inc. (Greenwich, Conn.) 3874TAFIa; details: for effect on TAFIa carboxypeptidase activity (residual TAFIa activity): incubation 1 hour at room temperature, various concentrations
T2 sequence (Q96IY4 115-423): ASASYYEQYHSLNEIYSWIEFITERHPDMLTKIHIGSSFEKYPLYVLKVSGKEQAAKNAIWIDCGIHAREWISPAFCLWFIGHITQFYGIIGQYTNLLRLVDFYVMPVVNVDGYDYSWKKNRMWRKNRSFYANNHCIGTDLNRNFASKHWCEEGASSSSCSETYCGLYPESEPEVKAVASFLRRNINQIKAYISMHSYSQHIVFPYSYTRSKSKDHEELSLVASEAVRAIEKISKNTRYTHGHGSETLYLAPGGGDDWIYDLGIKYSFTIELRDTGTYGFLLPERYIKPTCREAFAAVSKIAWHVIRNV
Method: Residual TAFIa activity was measured using ActiFLUOR TAFIa.
Residual TAFIa activity was measured using ActiFLUOR TAFIa. […] About 60% TAFIa activity is lost at 25 mM SA.
Materials. TAFI was purchased from Hematological Associates (Essex Junction, Vt.) and TAFIa (3874TAFIa) was from American Diagnostica Inc. (Greenwich, Conn.). Carboxypeptidase activity of TAFIa was determined using ACTIFLUOR™ TAFI (#874FX) a fluorescence-based assay from American Diagnostica (Greenwich, Conn.). ASA, SA and SU were obtained from Sigma Chemical Co. (St. Louis, Mo.).
Results. The present inventors have made the surprising discovery that ASA, SA and SU may shift the hemostatic balance toward a profibrinolytic state by inhibition of TAFIa, the major regulator of fibrinolysis. TAFIa was incubated with various concentrations of ASA, SA and SU for one hour, at room temperature. Residual TAFIa activity was measured using ActiFLUOR TAFIa. […] Catella-Lawson and coworkers recently reported that ibuprofen, taken prior to aspirin, blocks the irreversible inhibition of COX-1 by aspirin and abrogates the anti-platelet activity of aspirin. Catella-Lawson, F. et al., 2001, N. Engl. J. Med. 345(25):1809-17. Since ibuprofen has little effect on TAFI, it was reasonable to conclude that ibuprofen taken prior to aspirin would not block the profibrinolytic activity of aspirin caused by TAFI inhibition.

LOX/HRP = assay: Dereplication assay: reaction of LOX/HRP with lysine; details: concentrations 5-10 times greater than IC50 for TAFI
Method: Positive hits identified with the ActiScreen TAFI assay were dereplicated to ensure that the inhibition of color development is due to blocking of the first reaction of the linked enzyme system catalyzed by TAFIa and not to inhibition of LOX or HRP.
Compounds L278R and LT32 were tested in the dereplication assay, described above.

TAFIa [2] = biological target: T2, TAFIa; assay: ActiScreen TAFI HTS assay (TAFIa carboxypeptidase, hippuryl-L-lysine/LOX/HRP); design: made in house; host or cells: native human TAFI (not recombinant)
Method: The activity of the chemical compounds was assessed in the ActiScreen® TAFI HTS assay, the principle of which is shown below.
The assay is run by mixing TAFIa and test compound in microtiter plate wells. “TAFI developer” is then added to start the reaction which is run at room temperature. The TAFI developer is formulated with hippuryl-L-lysine, lysine oxidase, horseradish peroxidase and ortho-phenylene-diamine. Hippuryl-L-lysine is converted by TAFIa to hippuric acid and L-lysine. Lysine-Oxidase (LOX) converts the lysine to 6-amino-2-oxo-hexanoic acid and hydrogen peroxide. The hydrogen peroxide is used along with ortho-phenylene-diamine […] as substrate for horseradish peroxidase. The reaction produces a yellow color that was monitored for Vmax in a spectrophotometer (SpectroMax 190, Molecular Devices, Sunnyvale, Calif.) in the kinetic mode at 450 nm.
The assay can also be run as an endpoint reaction in which the enzymatic reaction is stopped at a selected point in time with 0.5 M sulphuric acid. The resulting color is read at 490 nm. A TAFI inhibitor will block the first reaction in the cascade in which TAFIa converts hippuryl-L-lysine to hippuric acid and lysine, which finally results in a decrease in Vmax or OD 490 nm relative to control reaction without addition of test compound. The assay has been designed to be run in final concentrations of DMSO of up to 20%. A known inhibitor of TAFIa carboxypeptidase activity, potato tuber carboxypeptidase inhibitor (PTCI), is used as a positive control.
Positive hits were selected based upon the ability of compounds to inhibit carboxypeptidase activity of TAFIa, as measured in the ActiScreen assay. The major criterion for selection of “hits” was based on their potency, as determined by the concentration of compound that inhibits the activity of TAFIa in the Actiscreen TAFI assay by 50% (“IC50”).

TAFIa [3] = biological target: T2, TAFIa; assay: TAFIa inhibition with Actichrome 874 TAFI Developer (Vmax); design: purchased American Diagnostica Inc. (Greenwich, Conn.) 3874TAFIa; details: different concentrations, Vmax (FIG. 6)
Method: Different concentrations of gentisic acid (GA) were incubated with TAFIa and Actichrome 874 TAFI Developer. TAFI activity (Vmax) was determined.

Carboxypeptidase N(CPN) = biological target: T3, Carboxypeptidase N(CPN) (Homo sapiens, UniProt P15169); assay: Specificity against Carboxypeptidase N in pooled normal human plasma; details: PNP (1:10), serially diluted compound
T3 construct: pooled normal human plasma (PNP) was used as the source of CPN; from tissue; host or cells: pooled normal human plasma (PNP), diluted 1:10
T3 sequence (P15169 21-458): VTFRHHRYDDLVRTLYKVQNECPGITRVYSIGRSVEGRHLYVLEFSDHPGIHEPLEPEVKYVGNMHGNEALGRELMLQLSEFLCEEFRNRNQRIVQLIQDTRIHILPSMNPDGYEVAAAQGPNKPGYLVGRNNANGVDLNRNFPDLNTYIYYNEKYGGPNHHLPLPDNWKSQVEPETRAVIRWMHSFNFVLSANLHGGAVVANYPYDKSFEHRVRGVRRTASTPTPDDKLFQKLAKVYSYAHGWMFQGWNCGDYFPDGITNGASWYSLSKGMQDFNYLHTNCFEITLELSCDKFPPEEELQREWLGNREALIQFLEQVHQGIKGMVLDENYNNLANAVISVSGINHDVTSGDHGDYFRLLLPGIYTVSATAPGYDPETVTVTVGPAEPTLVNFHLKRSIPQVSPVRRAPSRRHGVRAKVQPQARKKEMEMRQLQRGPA
T3 sequence (P22792 22-545 partner): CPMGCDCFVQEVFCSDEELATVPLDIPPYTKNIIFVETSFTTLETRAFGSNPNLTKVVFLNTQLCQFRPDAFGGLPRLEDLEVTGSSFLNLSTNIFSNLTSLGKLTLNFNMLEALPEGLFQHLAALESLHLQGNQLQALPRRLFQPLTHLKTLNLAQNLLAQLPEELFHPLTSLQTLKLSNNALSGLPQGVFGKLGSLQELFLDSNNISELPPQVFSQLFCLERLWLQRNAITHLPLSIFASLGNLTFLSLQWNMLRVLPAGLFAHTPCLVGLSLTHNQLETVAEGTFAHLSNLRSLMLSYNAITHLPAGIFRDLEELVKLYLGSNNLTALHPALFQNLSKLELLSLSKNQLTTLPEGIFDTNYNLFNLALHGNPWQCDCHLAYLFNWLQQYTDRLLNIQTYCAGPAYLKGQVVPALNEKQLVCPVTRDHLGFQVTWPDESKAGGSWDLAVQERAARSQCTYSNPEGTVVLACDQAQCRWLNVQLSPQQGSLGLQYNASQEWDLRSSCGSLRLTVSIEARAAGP
Method: L278R was also tested for specificity against Carboxypeptidase N(CPN). CPN is the constituitively active carboxypeptidase B-like enzyme in plasma. In this study, pooled normal human plasma (PNP) was used as the source of CPN. The specificity studies were performed by adding PNP (1:10), ActiScreen developer and serially diluted test compound into microtiter wells. Inhibition of color development was an indication of inhibitory activity towards CPN.

effect on activation of TAFI to TAFIa by thrombin/thrombomodulin (TAFI): inhibit activation of TAFI to TAFIa
effect on activation of TAFI to TAFIa by thrombin/thrombomodulin (TAFI; listed as 2-hydroxybenzoic acid (salicyluric acid)): inhibit the activation of TAFI
rank of potency as TAFIa inhibitor (TAFIa [1]; SU vs SA vs ASA, 1 hour at room temperature): most effective inhibitor
Structure (SMILES): O=C(O)CNC(=O)c1ccccc1O [SU, salicyluric acid (2-hydroxyhippuric acid)]
effect on TAFIa carboxypeptidase activity (residual TAFIa activity) (TAFIa [1]): directly inhibited; also recorded: inhibited in a dose-dependent manner

Structure (SMILES): O=C(NCCNC(=O)c1cc(OCc2ccccc2)ccc1OCc1ccccc1)OCCNC(=O)c1ccccc1O [LT32]
effect on reaction rate (Vmax) of LOX/HRP with lysine (LOX/HRP): Neither of the compounds had a significant effect
IC50 (TAFIa [2]): 225 µM
type of inhibition of TAFIa (TAFIa [2]; no preincubation): competitive inhibitor

concentration at which significant inhibition of TAFI activity occurs (TAFIa [1]; incubation 1 hour at room temperature (FIG. 1)): ~600 µg/mL
Structure (SMILES): CC(=O)Oc1ccccc1C(=O)O [ASA, acetylsalicylic acid]
effect on activation of TAFI to TAFIa by thrombin/thrombomodulin (TAFI): did not appear to have a significantly effect
effect on TAFIa carboxypeptidase activity (residual TAFIa activity) (TAFIa [1]): directly inhibited; also recorded: inhibited in a dose-dependent manner

type of inhibition of TAFIa (TAFIa [3]): competitive inhibition
Structure (SMILES): O=C(O)c1cc(O)ccc1O [gentisic acid]

effect on activation of TAFI to TAFIa by thrombin/thrombomodulin (TAFI): inhibit activation of TAFI to TAFIa
effect on activation of TAFI to TAFIa by thrombin/thrombomodulin (TAFI; listed as salicylic acid): inhibit the activation of TAFI
TAFIa activity lost (TAFIa [1]; 25 mM, room temperature, 1 hour (FIG. 3)): About 60%
Structure (SMILES): O=C(O)c1ccccc1O [SA, salicylic acid]
effect on TAFIa carboxypeptidase activity (residual TAFIa activity) (TAFIa [1]): directly inhibited; also recorded: inhibited in a dose-dependent manner

inhibition of CPN (Carboxypeptidase N(CPN)): did not inhibit CPN
IC50 (TAFIa [2]; TAFIa preincubated with compound 1 hour at 4° C. prior to assay): 890 µM
type of inhibition of TAFIa (TAFIa [2]; no preincubation): competitive type inhibitor
IC50 (TAFIa [2]; no preincubation, assay as in Example 3): 1540 µM
type of inhibition of TAFIa (TAFIa [2]; preincubated 1 hour at 4° C.): non-competitive-type inhibitor
Structure (SMILES): NCCCNC(=O)OCCNC(=O)c1ccccc1O [L278R, 2-(2-hydroxybenzoylamino)ethyl N-(3-aminopropyl)carbamate]
effect on reaction rate (Vmax) of LOX/HRP with lysine (LOX/HRP): Neither of the compounds had a significant effect

effect on TAFIa carboxypeptidase activity (residual TAFIa activity) (TAFIa [1]): little inhibitory effect
Structure (SMILES): CC(C)Cc1ccc(C(C)C(=O)O)cc1 (stereo not drawn) [ibuprofen]

effect on TAFIa carboxypeptidase activity (residual TAFIa activity) (TAFIa [1]): little inhibitory effect
Structure (SMILES): CC(=O)Nc1ccc(O)cc1 [acetominophen]

IC50 (TAFIa [2]): 44 µM
Structure (SMILES): O=C(N[C@H](CO)Cc1ccccc1)c1cc(O)ccc1O [JV59, N-[(S)-1-hydroxy-3-phenyl-2-propyl]-2,5-dihdroxybenzamide]
